Assay results reported in US20050175535A1 (CV Therapeutics, Inc., priority 2000, published 2005).
Read-outs that look alike come from different tables or passages of the source.

Assays:
[1] = system: rat isolated perfused heart; test: Reversal time of coronary vasodilation in rat isolated perfused hearts; details: bolus; for t0.5, time to 50% reversal of the increase in coronary conductance / t0.9, time to 90% reversal of the increase in coronary conductance: rat isolated perfused heart;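 for t0.5, time to 50% reversal of the increase in coronary conductance: each agonist bolused at its minimal concentration giving equal maximal coronary conductance rise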;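 for t0.9, time to 90% reversal of the increase in coronary conductance: each agonist bolused at its minimal concentration giving equal maximal coronary conductance rise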
Protocol: FIG. 10. Reversal of effect of agonist stimulation on CC. […] CC was measured at 8, 16 and 24 minutes after administration (FIG. 10A). […] R and N are the correlation coefficient and number of agonists, respectively.
The relationship between the affinity of agonists for the A2A receptor and the rate of reversal of agonist-mediated responses (coronary vasodilation in heart and cAMP accumulation in PC12 cells) upon termination of drug administration were determined. […] The duration of the coronary vasodilation in isolated rat hearts caused by adenosine, the CVT compounds, and other agonists measured as the time to 50% and 90% (t0.5 and t0.9, respectively) reversal of the increases in coronary conductance after termination of drug administration are summarized in Table 4.

[2] = Coronary blood flow and hemodynamics in conscious dogs; assay type: in vivo; details: for ED50: Canis lupus familiaris, read-out: ED50, increase in mean CBF
Protocol: Ten mongrel dogs (weighing 23-27 kg) were premedicated with Acepromazine (0.3 mg/kg im) and anesthetized with sodium pentobarbital (25 mg/kg) and then intubated and ventilated with room air. A thoracotomy was performed in the left fifth intercostal space using sterile surgical techniques. A Tygon catheter (Cardiovascular Instruments, Inc.) was placed in the descending thoracic aorta for the measurements of blood pressure. A solid-state pressure gauge (P6.5, Konisberg Instrument, Inc) was placed in the apex of the left ventricle for the measurement of the left ventricular systolic pressure (LVSP) and calculation of first derivative of left ventricular pressure (LV dP/dt). A Doppler transducer (Craig Hartley) was placed on the left circumflex coronary artery for measurement of CBF. An hydraulic coronary occluder (In Vivo Metric, Inc) was implanted in 4 dogs around the left circumflex coronary artery. The chest was closed in layers and the catheters and wires were run subcutaneously and exited in the interscapular area. The dogs were allowed 10 to 14 days to recover fully from the surgery and were trained to lie on a laboratory table. The protocols were approved by the Institutional Animal Care and Use Committee of New York Medical College and conform to the “Guiding Principles for the use and Care of Laboratory Animals” of the National Institute of Health and the American Physiology Society.
Arterial pressure was measured by connecting the previously implanted catheter to a strain-gauge transducer (P231D, Statham) and mean arterial pressure (MAP) was derived using 2-Hz low-pass filter. […] Left circumflex CBF was measured using a pulsed Doppler flowmeter (System 6, Triton technology), and mean CBF was derived using a 2-Hz low-pass filter. Mean CR was calculated as the quotient of MAP and CBF. Heart rate was monitored from the pressure pulse interval using a cardiotachometer (Beckman Instruments). The lead-2 of the electrocardiogram was recorded during the experiments in order to examine the alterations in the AV nodal conduction (PR interval). All signals were recorded on a direct-writing oscillograph (Gould 2800).
Hemodynamics were measured before, during and after each dose. Following each dose hemodynamics were allowed to return to baseline before the administration of the next dose. Changes in heart rate, blood pressure, CBF, and ECG were recorded.
Hemodynamic results are expressed as mean±SEM. […] Because no statistical differences were found among the baseline values between each dose for each parameter measure, the first baseline registered during each experiment was used as the control value.

[3] = target: A2A adenosine receptors (PC12 cells) (Rattus norvegicus, UniProt P30543); test: cAMP accumulation in PC12 cells
Protocol: Effects of adenosine receptor agonists on cAMP content in intact PC12 cells. […] Cyclic AMP levels were determined as described under “Methods”. Values represent mean±SEM of results of triplicate samples from three experiments. […] Values represent mean±SEM of triplicate determinants from one representative experiment.
Briefly, PC12 cells were rinsed three times with Hanks' balanced saline solution (HBSS), detached using a cell lifter, and pelleted by centrifugation at 500 g for 5 minutes. Aliquots of the cell suspension (0.1 to 0.2 mg protein) were placed in microfuge tubes with 250 μL of HBSS containing rolipram (50 μmol/L) to inhibit phosphodiesterases that degrade cAMP_and warmed to 37° C. Appropriate drugs were added to the cell suspensions, and incubations were allowed to continue for 10 minutes. Tubes were placed in a boiling water bath for 5 minutes to terminate the incubation. The samples were then cooled to room temperature, diluted by the addition of 1 mL of 10 mmol/L Tris-HCl buffer at pH 7.4, and then centrifuged for 2 minutes at 13000 g.
The samples were then incubated at 4° C. for 16 hours. At the end of the incubation, 70 μL of a 50% (wt/vol) hydroxyapatite suspension was added to each tube. The suspensions were gently agitated and then incubated for 10 minutes at 4° C. Antibody-bound radioactivity adsorbed to hydroxyapatite was collected onto glass fiber filters by vacuum filtration using a Brandel cell harvester. Radioactivity retained by the filter was counted in a gamma counter. […] The amount of cAMP present in samples was calculated based on a standard curve using known amounts of cAMP.

[4] = target: T1, human A1 adenosine receptors (Homo sapiens, UniProt P30542); test: Competitive radioligand binding, [3H]CPX, CHO-hA1AdoR membranes; details: for Ki: [3H]CPX; for affinity for the A1 receptor expressed by CHO-K1 cells: in words
T1 construct: expressed in transfected cells
T1 sequence (P30542 1-326): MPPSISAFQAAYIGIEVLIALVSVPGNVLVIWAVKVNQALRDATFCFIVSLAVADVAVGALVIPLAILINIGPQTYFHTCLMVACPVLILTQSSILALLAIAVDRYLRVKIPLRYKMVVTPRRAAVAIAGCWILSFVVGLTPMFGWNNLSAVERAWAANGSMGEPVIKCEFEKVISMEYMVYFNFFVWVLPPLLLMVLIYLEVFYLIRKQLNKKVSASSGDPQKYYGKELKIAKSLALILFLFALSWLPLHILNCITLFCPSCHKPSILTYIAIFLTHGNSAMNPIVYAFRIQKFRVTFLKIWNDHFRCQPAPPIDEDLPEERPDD
Protocol: The cell suspensions were homogenized and centrifuged at 48,000g for 15 minutes. The pellets were washed three times by re-suspension in ice-cold Tris-HCl buffer and centrifugation. The final pellet was re-suspended in Tris-HCl, aliquoted and frozen at −80° C. until used for receptor binding assays.

A2A adenosine receptors = A2A adenosine receptors (Rattus norvegicus, UniProt P30543); test: Competitive radioligand binding, [3H]ZM241385, PC12 cell membranes
Protocol: Rat pheochromocytoma PC12 cells were obtained from the American Type Culture Collection and grown in DMEM with 5% fetal bovine serum, 10% horse serum, 0.5 mmol/L L-glutamine, 100 U/mL penicillin, 0.1 mg/l mL streptomycin, and 2.5 μg/mL amphotericin.
Cell membranes were harvested from the cell lines by detaching cells from the culture plates into ice-cold 50 mmol/L Tris-HCl buffer (pH 7.4). The cell suspensions were homogenized and centrifuged at 48,000g for 15 minutes. The pellets were washed three times by re-suspension in ice-cold Tris-HCl buffer and centrifugation. The final pellet was re-suspended in Tris-HCl, aliquoted and frozen at −80° C. until used for receptor binding assays.
Briefly, membrane suspensions, obtained from cells expressing either adenosine receptor subtypes A1, A2A, A2B or A3were incubated for 2 hours at room temperature in 50 mmol/L Tris-HCl buffer (pH 7.4) containing ADA (1U/mL). […] At the end of the incubation, free radioligand was separated from membrane-bound radioligand by filtration through Whatman GF/C glass fiber filters using a Brandel tissue harvester (Gaithersburg, Md.). Triplicate determinations were performed for each concentration of unlabelled compound.

[5] = target: T2, human A2B adenosine receptors (Homo sapiens, UniProt P29275); test: cAMP accumulation in HEK-293 cells expressing A2B adenosine receptors; assay type: cell-based; details: up to 100 μM
T2 construct: expressed in transfected cells
T2 sequence (P29275 1-332): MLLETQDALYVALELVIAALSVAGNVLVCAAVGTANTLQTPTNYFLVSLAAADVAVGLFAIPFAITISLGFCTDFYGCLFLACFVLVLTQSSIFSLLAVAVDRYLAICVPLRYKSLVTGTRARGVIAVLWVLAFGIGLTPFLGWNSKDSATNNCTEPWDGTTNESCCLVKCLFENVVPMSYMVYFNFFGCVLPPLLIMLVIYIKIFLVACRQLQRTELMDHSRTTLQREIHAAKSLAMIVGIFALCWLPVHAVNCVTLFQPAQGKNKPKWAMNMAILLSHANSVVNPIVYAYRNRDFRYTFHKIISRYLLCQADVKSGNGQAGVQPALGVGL

A1 adenosine receptor = target: T3, A1 adenosine receptor (Rattus norvegicus, UniProt P25099); test: A-V nodal conduction time (negative dromotropic effect) in isolated rat hearts
T3 construct: Effect of concentration on AV conduction time and coronary conductance in isolated rat hearts; tissue Simonsen Laboratories (Gilroy, Calif.); host or cells: isolated perfused rat heart (Sprague Dawley)
T3 sequence (P25099 1-326): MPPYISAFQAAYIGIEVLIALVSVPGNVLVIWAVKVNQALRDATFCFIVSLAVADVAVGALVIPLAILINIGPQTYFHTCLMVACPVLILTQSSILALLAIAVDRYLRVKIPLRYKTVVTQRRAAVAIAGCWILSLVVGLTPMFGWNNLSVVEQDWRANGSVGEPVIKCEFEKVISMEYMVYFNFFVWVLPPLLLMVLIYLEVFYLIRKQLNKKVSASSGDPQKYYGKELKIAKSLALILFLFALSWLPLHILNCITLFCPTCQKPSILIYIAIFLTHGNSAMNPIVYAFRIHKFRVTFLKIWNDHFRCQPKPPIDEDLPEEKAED

[6] = read-out: pKi ± SEM, CHO-hA1AdoR (converted)

A2A adenosine receptors (PC12 cells), sequence (P30543 whole entry): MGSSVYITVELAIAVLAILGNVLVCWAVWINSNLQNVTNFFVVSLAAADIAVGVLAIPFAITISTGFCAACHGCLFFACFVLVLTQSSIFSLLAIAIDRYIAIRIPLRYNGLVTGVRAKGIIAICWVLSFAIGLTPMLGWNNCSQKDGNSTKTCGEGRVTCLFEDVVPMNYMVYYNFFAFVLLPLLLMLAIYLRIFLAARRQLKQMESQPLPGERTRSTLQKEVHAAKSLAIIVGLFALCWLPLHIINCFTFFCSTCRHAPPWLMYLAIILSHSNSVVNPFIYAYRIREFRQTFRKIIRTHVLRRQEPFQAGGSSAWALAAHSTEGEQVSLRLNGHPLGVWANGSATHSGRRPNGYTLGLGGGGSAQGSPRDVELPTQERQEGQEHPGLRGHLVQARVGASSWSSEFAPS
A2A adenosine receptors, sequence (P30543 whole entry): as above

| SMILES | t0.5, time to 50% reversal of the increase in coronary conductance [1] | t0.9, time to 90% reversal of the increase in coronary conductance [1] | ED50 ([2]; IV bolus, conscious dogs) | EC50 [3] | Ki ([4]; read-out: Ki, CHO-hA1AdoR) | Ki [4, 6] | affinity for the A1 receptor expressed by CHO-K1 cells [4] | effect on cellular cAMP content [5] | effect on A-V nodal conduction time (A1 adenosine receptor) | other results |
| --- | --- | --- | --- | --- | --- | --- | --- | --- | --- | --- |
| Nc1ncnc2c1ncn2[C@@H]1O[C@H](CO)[C@@H](O)[C@H]1O [Adenosine, adenosine, reference compound] | 1.6 ± 0.1 min | 5.6 ± 0.8 min | 0.051 ± 0.015 mg/kg |  |  |  |  |  |  | duration of the effect on coronary conductance (rank among agonists) ([1]; isolated rat hearts, FIG. 10): shortest; increase in LVSP ([2]; 67 μg/kg, conscious dogs): 12±3%; increase in LVSP ([2]; 134 μg/kg, conscious dogs): 12±3%; maximal decrease in CR ([2]; 267 μg/kg iv, conscious dogs): 73±1%; increase in LVSP ([2]; 267 μg/kg, conscious dogs): 18±6%; increase in dP/dt ([2]; 267 μg/kg, conscious dogs): 29±7% |
| CCCCCn1cc(-c2nc(N)c3ncn(C4O[C@@H](CO)[C@H](O)[C@@H]4O)c3n2)cn1 (some centres unmarked) [CVT-3033] | 3.4 ± 0.5 min | 8.4 ± 2.2 min |  | 0.487 µM | 5.84 µM | 5.75 µM | relatively low affinities | neither CVT-3033 nor CVT-3146 had any detectable effects | did not prolong A-V nodal conduction time | shift to the right of the CGS21680 concentration-response curve ([3]; CVT-3033 1 μM, PC12 cells): ~5 fold; Emax ([3]; PC-12, read-out: maximal response of cAMP accumulation, % of that induced by CGS21680): 63%; agonist behaviour in PC12 cells ([3]; cAMP accumulation): partial A2A agonists; Ki (A2A adenosine receptors; binding affinity to A2A in PC12 cells (Ki)): 3.62 µM; Ki (A2A adenosine receptors; pKi ± SEM, PC12 cells (A2A), [3H]ZM241385): 3.55 µM |
| CNC(=O)c1cnn(-c2nc(N)c3ncn(C4O[C@@H](CO)[C@H](O)[C@@H]4O)c3n2)c1 (some centres unmarked) [CVT-3146] |  |  | 0.00034 ± 8e-05 mg/kg | 0.291 µM | > 16.5 µM | 25.7 µM | relatively low affinities | neither CVT-3033 nor CVT-3146 had any detectable effects | did not prolong A-V nodal conduction time | Ki (A2A adenosine receptors): 1.73 µM; maximal decrease in CR ([2]; 2.5 μg/kg iv, conscious dogs): 73±2%; increase in dP/dt ([2]; 2.5 μg/kg, conscious dogs): 39±7%; maximal decrease in CR ([2]; 5 μg/kg iv, conscious dogs): 75±2%; maximal increase in mean CBF from baseline ([2]; IV bolus, conscious dogs, baseline 45±3 ml/min): 154 ± 16 mL/min; changes in LVSP ([2]; increasing doses, conscious dogs (data not shown)): did not cause significant changes in LVSP |
